Experiment: Lipophilicity, log P of the compound
Type: physicochemical
Details: octanol/water; read-out: logP

Row | SMILES | logP
1 | O=C(CNC(=O)c1ccc2[nH]c3ccccc3c2c1)NCCO | 1.4
2 | NC(=O)CNC(=O)Cc1ccccc1 | 0.06
3 | O=C(O)c1cnc2c(ccc3ccccc32)c1O | 1.87
4 | Cn1c(=O)c(CC(=O)C(=O)O)nc2ccccc21 | -0.29
5 | O=C(O)CSc1cccc2ccccc12 | 3.22
6 | O=C(O)Cc1c(O)c2c(c(O)c1Cl)C(=O)c1ccccc1C2=O | 2.69
7 | N#CCCNCc1cccnc1 | 0.03
8 | Cc1ccc(O)c(/C=N/c2cccc(C(=O)O)c2)c1 | 3.28
9 | O=C(CSc1nc2cccnc2[nH]1)NCCc1ccccc1 | 2.43
10 | COc1ccc2[nH]c(SCC(N)=O)nc2c1 | 1.01
11 | N#Cc1ccc[n+](Cc2cc(=O)[nH]c(=O)[nH]2)c1 | 0.38
12 | NS(=O)(=O)c1ccc2c(N=O)c(O)ccc2c1 | 1.3
13 | Cc1cn[nH]c1NC=C1C(=O)c2ccccc2C1=O | 1.79
14 | NCc1ccccn1 | -0.11
15 | Nc1nnc(CCN2C(=O)c3ccccc3C2=O)s1 | 1.39
16 | O=C(Cn1ncc2cc([N+](=O)[O-])ccc21)NCc1ccco1 | 0.92
17 | C/N=C(/NC)SC1CC(=O)N(c2cccc(C(=O)O)c2)C1=O (stereo not drawn) | 1.25
18 | Cc1cc(C(=O)O)nn1-c1ccccc1 | 1.47
19 | O=C(CC1NCCNC1=O)NCc1ccccc1 (stereo not drawn) | -0.2
20 | C=CCn1c(S)nc2sc3c(c2c1=O)CCN(C)C3 | 2.29

Row | SMILES | logP
21 | O=C1Nc2ccccc2Nc2ccccc21 | 2.27
22 | O=C(O)CNS(=O)(=O)c1ccc(F)cc1 | 0.66
23 | NCc1ccc2c3c(cccc13)C(=O)N2 | 1.36
24 | COc1ccc(NC(=O)CSc2nnc(C)n2-c2ccc(C)cc2)cc1 | 3.95
25 | Cc1nccn1S(=O)(=O)c1ccc(F)cc1 | 0.89
26 | [O-][NH+]1C=CC=C/C1=C1\C=CC=C[NH+]1[O-] (stereo not drawn) | 1.95
27 | c1ccc2c(c1)n[n+]1c3ccccc3[n-]n21 | 2
28 | Nc1nnc(-c2cc3ccc(O)cc3oc2=O)s1 | 2.05
29 | COc1ccc(C(=O)n2nnc3ccccc32)cc1 | 2.77
30 | Nc1nonc1N/N=C/c1ccc(O)c(O)c1 | 3.18
31 | c1cncc(CNCc2cccnc2)c1 | 1.01
32 | O=C1c2ccccc2-c2nc3n[nH]nc3nc21 | 2
33 | Cc1cc(-c2ccc(F)cc2)nc2cc(C(=O)O)nn12 | 2.08
34 | NC(=O)C1=NC(c2cccnc2)=NC1=O | -1.12
35 | NC(=O)NNC1CC(=O)N(c2ccc(F)cc2)C1=O (stereo not drawn) | -0.43
36 | NC(N)N/N=C/c1cc(=O)[nH]c(=O)[nH]1 | -1.79
37 | N#Cc1ncc(-c2ccccc2)nc1C#N | 0.8
38 | Cc1ccc(Nc2n[nH]c(N=CNO)n2)cc1C | 2.07
39 | Nc1ccccc1N/C=C1/C(=O)CNC1=O | -0.57
40 | c1ccc2[nH]c(Cc3ccncc3)nc2c1 | 2.14

Row | SMILES | logP
41 | Nc1nonc1-c1nc2ccccc2n1CC(=O)O | 1.08
42 | NCCCNc1ccc([N+](=O)[O-])c(N)c1 | 0.38
43 | O=C(O)Cc1c(C(=O)O)[nH]c2ccccc12 | 1.67
44 | NCCNS(=O)(=O)c1cccc(C(=O)O)c1 | -0.2
45 | COc1ccc(/C=N/NC(=O)Cc2ccc([N+](=O)[O-])cc2)cc1 | 3.67
46 | O=C(c1ccccc1O)c1[nH]ncc1[N+](=O)[O-] | 1.6
47 | NC1=N[NH+]([O-])c2ccccc2[NH+]1[O-] (stereo not drawn) | 1.22
48 | NCC(=O)N(O)Cc1ccccc1 | 0.19
49 | Cc1nonc1NC(=O)CN1CCN(C)CC1 | -1.04
50 | NC(=O)c1ccc[n+](-c2ccccc2)c1 | 2.15
51 | N=C1S/C(=C\c2ccccc2)C(=O)N1c1nonc1N | 2.4
52 | O=C(O)CSc1nc(O)c2ccccc2n1 | 1.34
53 | NC(=O)c1nnn2c1nc(N)c1cc(Cl)ccc12 | -0.14
54 | O=C(O)c1ccc(Cc2ccccc2)o1 | 2.22
55 | O=C1CN=C(Nc2nc3ccccc3o2)N1 | 0.62
56 | O=C(Oc1ccc(S(=O)(=O)c2ccc(OC(=O)c3ccco3)cc2)cc1)c1ccco1 | 3.38
57 | CCOc1ccc(Nc2nc(CC(=O)O)cs2)cc1 | 2.29
58 | Cc1nc(NCCCC(=O)O)c2ccccc2n1 | 1.38

Source: ChEMBL document CHEMBL3880431, “Heme oxygenase inhibitors, screening methods for heme oxygenase inhibitors and methods of use of heme oxygenase inhibitors for antimicrobial therapy” (2013)
